Laboratory results taken from the supplement of paper PMC11281043.
± gives the standard deviation of the averaged measurements.

What was measured:
Settings in all cases: exposure: 6-8 hpf to 5 dpf, scored at 6 dpf
[1] = system: Danio rerio embryo/larva; test: max % larvae with pigmentation defects across tested concentrations; higher = more toxic
[2] = system: Danio rerio embryo/larva; test: max % larvae with abnormal position across tested concentrations; higher = more toxic; extreme values may be limits of the assay
[3] = system: Danio rerio embryo/larva; test: max % larvae with spinal defects across tested concentrations; higher = more toxic; extreme values may be limits of the assay
[4] = system: Danio rerio embryo/larva; test: max % larvae with tail defects across tested concentrations; higher = more toxic; extreme values may be limits of the assay
[5] = system: Danio rerio embryo/larva; test: max % larvae with uninflated swim bladder across tested concentrations; higher = more toxic; extreme values may be limits of the assay
[6] = system: Danio rerio embryo/larva; test: max % larvae with edema across tested concentrations; higher = more toxic; extreme values may be limits of the assay
[7] = system: Danio rerio embryo/larva; test: max % larvae with craniofacial defects across tested concentrations; higher = more toxic; extreme values may be limits of the assay
[8] = system: Danio rerio embryo/larva; test: max % larvae generally abnormal across tested concentrations; higher = more toxic; extreme values may be limits of the assay
[9] = system: Danio rerio embryo/larva; test: max % larvae with blood pooling across tested concentrations; higher = more toxic; extreme values may be limits of the assay

Structure (SMILES)	max % larvae [1] [%]	max % larvae [2] [%]	max % larvae [3] [%]	max % larvae [4] [%]	max % larvae [5] [%]	max % larvae [6] [%]	max % larvae [7] [%]	max % larvae generally abnormal across tested concentrations [8] [%]	max % larvae [9] [%]
COC(=O)C(F)(F)C(F)(F)OC(F)(C(F)(F)F)C(F)(F)OC(F)=C(F)F (centres undefined) [Methyl perfluoro(3-(1-ethenyloxypropan-2-yloxy)propanoate)] (max tested concentration (log10 uM): 1.60206)	0	4.17	0	0	0	8.33	0	8.33	0
O=C(O)C(F)(F)C(F)(F)F [Perfluoropropanoic acid] (max tested concentration (log10 uM): 2)	0	0	0	0	0	0	0	0	0
O=S(=O)(O)C(F)(F)C(F)(F)C(F)(F)C(F)(F)F [Perfluorobutanesulfonic acid] (max tested concentration (log10 uM): 2)	0	0	0	0	0	0	0	0	0
O=C(O)C(F)(F)C(F)(F)C(F)(F)C(F)(F)C(F)(F)C(F)(F)F [Perfluoroheptanoic acid] (max tested concentration (log10 uM): 2)	0	0	0	0	16.7	8.33	0	8.33	0
OCCC(F)(F)C(F)(F)C(F)(F)C(F)(F)C(F)(F)C(F)(F)C(F)(F)C(F)(F)F [2-(Perfluorooctyl)ethanol] (max tested concentration (log10 uM): 2)	0	8.33	0	0	44.4	19.4	0	22.2	0
NC(=O)C(F)(F)C(F)(F)F [Pentafluoropropionamide] (max tested concentration (log10 uM): 2)	0	0	0	0	0	0	0	0	0
FC(F)(F)C(F)(F)C(F)(F)CI [Heptafluorobutyl iodide] (max tested concentration (log10 uM): 2)	0	0	0	0	0	0	0	0	0
O=C(O)C(F)(F)C(F)(F)C(F)(F)C(F)(F)C(F)(F)C(F)(F)C(F)F [8H-Perfluorooctanoic acid] (max tested concentration (log10 uM): 2)	0	0	0	4.17	16.7	0	0	8.33	0
O=C(O)C(F)(F)C(F)(F)C(F)(F)C(F)(F)F [Perfluoropentanoic acid] (max tested concentration (log10 uM): 2)	0	4.17	0	0	16.7	16.7	0	16.7	0
O=C(O)C(F)(F)C(F)(F)C(F)(F)C(=O)O [Perfluoropentanedioic acid] (max tested concentration (log10 uM): 2)	0	0	0	0	0	0	0	0	0
O=C(O)C(F)(F)C(F)(F)C(F)(F)OC(F)(F)F [Perfluoro(4-methoxybutanoic acid)] (max tested concentration (log10 uM): 2)	0	0	0	0	0	0	0	0	0
OCCC(F)(F)C(F)(F)C(F)(F)C(F)(F)F [4:2 Fluorotelomer alcohol] (max tested concentration (log10 uM): 2)	0	0	0	0	0	4.17	0	4.17	0
O=S(=O)(O)CCC(F)(F)C(F)(F)C(F)(F)C(F)(F)C(F)(F)C(F)(F)C(F)(F)C(F)(F)F [8:2 Fluorotelomer sulfonic acid] (max tested concentration (log10 uM): 2)	0	0	0	0	0	0	0	0	0
NCC(F)(F)C(F)(F)C(F)(F)C(F)(F)C(F)(F)C(F)(F)C(F)(F)F [1H,1H-Perfluorooctylamine] (max tested concentration (log10 uM): 2)	0	0	0	0	20 ± 28	22.5 ± 32	15 ± 21	20 ± 28	0
C=C(C)C(=O)OCC(F)(F)C(F)(F)C(F)(F)C(F)(F)C(F)(F)C(F)(F)C(F)(F)F [(Perfluoroheptyl)methyl methacrylate] (max tested concentration (log10 uM): 1.60206)	0	0	0	0	0	0	0	0	0
NCC(F)(F)C(F)(F)C(F)(F)C(F)(F)C(F)(F)C(F)(F)C(F)(F)C(F)(F)F [1H,1H-Perfluorononylamine] (max tested concentration (log10 uM): 1.60206)	0	25	0	0	50	50	50	75	50

Structure (SMILES)	max % larvae [1] [%]	max % larvae [2] [%]	max % larvae [3] [%]	max % larvae [4] [%]	max % larvae [5] [%]	max % larvae [6] [%]	max % larvae [7] [%]	max % larvae generally abnormal across tested concentrations [8] [%]	max % larvae [9] [%]
O=S(=O)(O)C(F)(F)C(F)(F)OC(F)(F)C(F)(F)F [Perfluoro-2-ethoxyethanesulfonic acid] (max tested concentration (log10 uM): 2)	0	0	0	0	16.7	8.33	0	8.33	0
O=C(Cl)C(F)(F)C(F)(F)C(F)(F)C(F)(F)C(F)(F)C(F)(F)F [Perfluoroheptanoyl chloride] (max tested concentration (log10 uM): 2)	0	4.17	8.33	8.33	16.7	16.7	16.7	16.7	0
C=CC(=O)OCC(F)(F)C(F)(F)C(F)(F)C(F)(F)C(F)(F)C(F)(F)C(F)(F)C(F)F [1H,1H,9H-Perfluorononyl acrylate] (max tested concentration (log10 uM): 2)	0	4.55	0	2.27	16.7	9.09	9.09	9.09	0
CCCCCCCCC(F)(F)C(F)(F)C(F)(F)C(F)(F)C(F)(F)C(F)(F)F [1-(Perfluorohexyl)octane] (max tested concentration (log10 uM): 1.60206)	0	0	0	0	0	0	0	0	0
C=C(C)C(=O)OCCC(F)(F)C(F)(F)C(F)(F)C(F)(F)C(F)(F)C(F)(F)F [2-(Perfluorohexyl)ethyl methacrylate] (max tested concentration (log10 uM): 2)	0	0	0	0	0	0	0	0	0
CCOC(=O)CC(=O)C(F)(F)C(F)(F)F [Ethyl pentafluoropropionyl acetate] (max tested concentration (log10 uM): 2)	0	0	0	0	0	0	0	0	0
NC(=O)C(F)(F)C(F)(F)C(F)(F)C(F)(F)C(N)=O [Octafluoroadipamide] (max tested concentration (log10 uM): 2)	0	0	0	0	0	0	0	0	0
OCCCC(F)(F)C(F)(F)C(F)(F)C(F)(F)C(F)(F)C(F)(F)C(F)(F)C(F)(F)F [3-(Perfluorooctyl)propanol] (max tested concentration (log10 uM): 2)	0	0	0	0	0	0	0	0	0
N=C(N)C(F)(F)C(F)(F)C(F)(F)C(F)(F)C(F)(F)C(F)(F)C(F)(F)F [Perfluorooctanamidine] (max tested concentration (log10 uM): 1)	0	0	0	0	0	4.17	0	8.33	16.7
O=C(O)C(F)(F)OC(F)(F)C(F)(F)OC(F)(F)C(F)(F)C(F)(F)C(F)(F)F [Perfluoro-3,6-dioxadecanoic acid] (max tested concentration (log10 uM): 2)	0	31.2	0	6.25	62.5	56.2	75	68.8	50
FC(F)(F)C(F)(F)C(F)(F)C(F)(F)C(F)(F)C(F)(F)CCS [2-(Perfluorohexyl)ethanethiol] (max tested concentration (log10 uM): 1.60206)	0	0	0	0	16.7	8.33	0	8.33	0
O=C(O)C(F)(F)C(F)(F)C(F)(F)F [Perfluorobutanoic acid] (max tested concentration (log10 uM): 2)	0	0	0	0	20	20	20	20	0
O=C(O)C(F)(F)C(F)(F)C(F)(F)C(F)(F)C(F)(F)C(F)(F)C(F)(F)C(F)F [9H-Perfluorononanoic acid] (max tested concentration (log10 uM): 2)	0	2.08	0	0	16.7	10.4	0	10.4	0
CO[Si](C)(CCC(F)(F)C(F)(F)C(F)(F)C(F)(F)C(F)(F)C(F)(F)F)OC [Dimethoxymethyl((perfluorohexyl)ethyl)silane] (max tested concentration (log10 uM): 1.60206)	0	0	0	0	0	0	0	0	0
FC(F)(F)C(F)(F)C(F)(F)C(F)(F)CCI [1H,1H,2H,2H-Perfluorohexyl iodide] (max tested concentration (log10 uM): 2)	0	0	0	0	0	8.33	0	8.33	0
